Activity calls are given as the source filed them. For most assays here, no stated cut-off is given here; in the data, actives have a measured EC50 and inactives only a lower limit.
Tests used:
[1] = HPDE-C7 pancreatic duct cell viability loss – fluorescence, HTS (AID 430); assay type: functional, cell-based; conditions: Homo sapiens
[2] = viability loss of HPDE-C7K cells – cell-based, fluorescence, HTS, primary screen (AID 431); assay type: functional; conditions: Homo sapiens
[3] = Trypanosoma cruzi growth suppression in host cells – NIH3T3 host cells, beta-gal luminescence, confirmation (AID 2044); assay type: functional, cell-based;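 further: intracellular parasites grown in NIH/3T3 mouse fibroblasts as host cells; luminescent beta-galactosidase reporter signal from transgenic T. cruzi replicating inside host cells; inhibitors lower the luminescence signal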
[4] = NIH3T3 cell viability loss – ATP luminescence, mouse fibroblasts, counter-screen, dose response (AID 2010); assay type: functional, cell-based; conditions: NIH3T3;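 further: cells exposed to compound for about 90 hours before reading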
[5] = cells
[6] = test system: H4; test: Luminescence Cell-Based Dose Response HTS to Identify Activators of 5'UTR Stem-Loop Driven Prion Protein mRNA Translation in H4 Neuroglioblastoma Cells. [Related pubchem assays: 1829 (Project Summary), 1814 (Primary HTS)]; assay type: functional; conditions: Homo sapiens
[7] = Luminescence Cell-Based Dose Confirmation HTS to Identify Activators of 5'UTR Stem-Loop Driven Alpha-Synuclein mRNA Translation in H4 Neuroglioblastoma Cells. [Related pubchem assays: 1829 (Project Summary), 1814 (Primary HTS)]; assay type: functional
[8] = Luminescence Cell-Based Dose Response HTS to Identify Activators of Luciferase Translation or Activity in H4 […] Cells. [Related pubchem assays: 1829 (Project Summary), 1814 (Primary HTS)]; assay type: functional
[9] = biological target: T1, Mucolipin-3 (Homo sapiens, UniProt Q8TDD5); test: Dose response cell-based high-throughput screening assay for agonists of the transient receptor potential channel ML3 (TRPML3). [Related pubchem assays: 1526, 1424, 1448 ]; assay type: functional
T1 sequence (Q8TDD5 whole entry): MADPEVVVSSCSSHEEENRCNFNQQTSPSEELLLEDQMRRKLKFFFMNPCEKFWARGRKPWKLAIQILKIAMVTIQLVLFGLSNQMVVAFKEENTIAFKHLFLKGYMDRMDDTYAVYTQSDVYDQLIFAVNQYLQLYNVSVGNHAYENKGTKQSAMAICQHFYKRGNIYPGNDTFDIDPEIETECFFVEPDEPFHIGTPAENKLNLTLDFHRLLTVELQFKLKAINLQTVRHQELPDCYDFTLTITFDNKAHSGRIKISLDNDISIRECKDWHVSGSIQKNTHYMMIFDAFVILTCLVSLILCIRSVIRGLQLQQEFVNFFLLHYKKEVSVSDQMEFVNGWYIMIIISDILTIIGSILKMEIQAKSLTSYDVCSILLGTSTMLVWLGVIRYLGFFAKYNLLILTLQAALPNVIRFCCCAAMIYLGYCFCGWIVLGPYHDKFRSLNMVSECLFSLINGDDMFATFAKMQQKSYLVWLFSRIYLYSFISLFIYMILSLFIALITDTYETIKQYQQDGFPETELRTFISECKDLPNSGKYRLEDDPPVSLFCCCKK

[10] = biological target: Ion channel NompC (Danio rerio, UniProt Q7T1G6); test: Fluorescence counterscreen assay for TRPML3 agonists: dose response cell-based high-throughput screening assay to identify agonists of the transient receptor potential channel N1 (TRPN1). [Related pubchem assays: 1526, 1424, 1448 ]; assay type: functional
Ion channel NompC, sequence (Q7T1G6 whole entry): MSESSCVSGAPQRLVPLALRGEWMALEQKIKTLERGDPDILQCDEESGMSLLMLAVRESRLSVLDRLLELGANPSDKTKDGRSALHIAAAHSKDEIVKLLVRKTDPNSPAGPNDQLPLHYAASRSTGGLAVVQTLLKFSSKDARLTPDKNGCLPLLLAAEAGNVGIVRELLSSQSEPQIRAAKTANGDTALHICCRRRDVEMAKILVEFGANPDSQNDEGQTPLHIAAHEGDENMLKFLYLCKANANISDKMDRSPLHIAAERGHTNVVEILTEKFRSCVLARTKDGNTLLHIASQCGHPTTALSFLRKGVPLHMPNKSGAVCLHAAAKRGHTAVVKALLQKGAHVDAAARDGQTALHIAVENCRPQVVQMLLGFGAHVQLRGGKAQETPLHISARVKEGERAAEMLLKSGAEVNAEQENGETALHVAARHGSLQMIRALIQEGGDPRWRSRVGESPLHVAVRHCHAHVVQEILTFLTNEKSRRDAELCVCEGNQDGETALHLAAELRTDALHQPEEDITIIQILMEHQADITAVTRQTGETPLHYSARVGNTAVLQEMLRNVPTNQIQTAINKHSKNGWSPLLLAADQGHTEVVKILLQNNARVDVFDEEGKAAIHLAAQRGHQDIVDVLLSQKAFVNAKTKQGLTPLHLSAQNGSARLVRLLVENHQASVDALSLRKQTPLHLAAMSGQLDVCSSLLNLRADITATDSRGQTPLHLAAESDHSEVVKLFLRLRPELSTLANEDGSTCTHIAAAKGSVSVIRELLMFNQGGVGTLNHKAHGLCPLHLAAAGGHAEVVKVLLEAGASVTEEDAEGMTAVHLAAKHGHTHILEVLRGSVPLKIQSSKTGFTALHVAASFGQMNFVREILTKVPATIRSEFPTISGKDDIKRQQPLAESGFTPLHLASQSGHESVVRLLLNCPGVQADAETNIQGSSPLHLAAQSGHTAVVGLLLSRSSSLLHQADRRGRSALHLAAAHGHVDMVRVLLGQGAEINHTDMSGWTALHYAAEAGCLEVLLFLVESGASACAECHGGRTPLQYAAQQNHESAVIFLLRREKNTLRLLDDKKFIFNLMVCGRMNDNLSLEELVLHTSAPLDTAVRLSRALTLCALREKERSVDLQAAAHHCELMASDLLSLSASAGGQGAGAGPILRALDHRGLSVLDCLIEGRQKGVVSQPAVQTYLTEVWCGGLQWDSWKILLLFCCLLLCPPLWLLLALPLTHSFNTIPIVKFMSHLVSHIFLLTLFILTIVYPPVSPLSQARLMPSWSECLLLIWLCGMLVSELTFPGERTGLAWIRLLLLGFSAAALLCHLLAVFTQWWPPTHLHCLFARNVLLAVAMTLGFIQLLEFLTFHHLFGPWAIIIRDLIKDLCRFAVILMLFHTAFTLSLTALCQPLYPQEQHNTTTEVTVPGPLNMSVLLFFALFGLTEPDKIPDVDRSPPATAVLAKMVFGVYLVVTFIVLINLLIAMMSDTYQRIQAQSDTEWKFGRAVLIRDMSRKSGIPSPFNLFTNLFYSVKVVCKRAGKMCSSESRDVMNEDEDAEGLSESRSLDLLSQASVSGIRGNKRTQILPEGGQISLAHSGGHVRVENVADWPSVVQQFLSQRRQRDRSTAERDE

[11] = fluconazole-exposed Candida albicans growth modulators – fluorescence, retest, confirmation (AID 2467); assay type: functional, cell-based
[12] = NIH-3T3 fibroblast cytotoxicity, dose response, cytotoxicity control, cell-based, fluorescence, Alamar Blue, secondary assay (AID 2327); assay type: functional;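 further: NIH-3T3 mouse fibroblasts cultured with fluconazole at 8 µg/mL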
[13] = alpha-synuclein stem-loop luciferase translation blockers – H4 neuroglioma cells, luminescence, confirmation (AID 1988); assay type: functional, cell-based
[14] = Luminescence Cell-Based Dose Response HTS to Identify Inhibitors of 5'UTR Stem-Loop Driven Prion Protein mRNA Translation in H4 Neuroglioblastoma Cells. [Related pubchem assays: 1827 (Project Summary), 1813 (Primary HTS)]; assay type: functional
[15] = luciferase reporter signal suppression in cells – H4 neuroglioma cells, luminescence, dose response (AID 1990); assay type: functional, cell-based
[16] = Luminescence Cell-Based Dose Response to Identify Activators of 5'UTR Stem-Loop Driven Prion Protein mRNA Translation in H4-C Neuroglioblastoma Cells. [Related pubchem assays: 1829 (Project Summary), 1814 (Primary HTS)]; assay type: functional
[17] = Luminescence Cell-Based Dose Response to Identify Activators of Luciferase Translation or Activity in H4-C Neuroglioblastoma Cells. [Related pubchem assays: 1829 (Project Summary), 1814 (Primary HTS)]; assay type: functional
[18] = Luminescence Cell-Based Dose Confirmation to Identify Activators of 5'UTR Stem-Loop Driven Alpha-Synuclein mRNA Translation in H4 Neuroglioblastoma Cells. [Related pubchem assays: 1829 (Project Summary), 1814 (Primary HTS)]; assay type: functional
[19] = biological target: Peroxisome proliferator-activated receptor gamma/Nuclear receptor coactivator 1 (Homo sapiens, UniProt P37231); assay type: functional;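 further: agonist potency as compounds enhance coactivator SRC-1 recruitment to PPARgamma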
[20] = biological target: Peroxisome proliferator-activated receptor gamma/Nuclear receptor coactivator 2 (Homo sapiens, UniProt P37231); assay type: functional;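 further: agonist potency for raising coactivator recruitment to the receptor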
[21] = biological target: Peroxisome proliferator-activated receptor gamma/Nuclear receptor coactivator 3 (Homo sapiens, UniProt P37231); assay type: functional;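 further: agonist potency for raising coactivator recruitment to the receptor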
Peroxisome proliferator-activated receptor gamma/Nuclear receptor coactivator 3, sequence (P37231 whole entry, the tested form may be a part): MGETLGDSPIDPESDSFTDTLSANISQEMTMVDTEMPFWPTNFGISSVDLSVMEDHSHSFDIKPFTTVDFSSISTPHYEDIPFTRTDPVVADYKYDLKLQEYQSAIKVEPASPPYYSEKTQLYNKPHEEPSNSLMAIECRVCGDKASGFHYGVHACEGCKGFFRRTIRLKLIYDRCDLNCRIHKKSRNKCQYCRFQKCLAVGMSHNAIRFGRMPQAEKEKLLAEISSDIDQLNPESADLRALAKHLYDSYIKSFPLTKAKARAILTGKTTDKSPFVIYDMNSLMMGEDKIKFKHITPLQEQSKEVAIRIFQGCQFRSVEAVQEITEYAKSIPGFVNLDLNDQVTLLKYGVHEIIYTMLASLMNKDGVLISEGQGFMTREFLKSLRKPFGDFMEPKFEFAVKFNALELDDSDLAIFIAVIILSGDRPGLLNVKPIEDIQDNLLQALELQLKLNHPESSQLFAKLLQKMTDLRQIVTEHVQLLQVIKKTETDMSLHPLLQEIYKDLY
Peroxisome proliferator-activated receptor gamma/Nuclear receptor coactivator 3, sequence (Q9Y6Q9 whole entry, further chain, the tested form may be a part): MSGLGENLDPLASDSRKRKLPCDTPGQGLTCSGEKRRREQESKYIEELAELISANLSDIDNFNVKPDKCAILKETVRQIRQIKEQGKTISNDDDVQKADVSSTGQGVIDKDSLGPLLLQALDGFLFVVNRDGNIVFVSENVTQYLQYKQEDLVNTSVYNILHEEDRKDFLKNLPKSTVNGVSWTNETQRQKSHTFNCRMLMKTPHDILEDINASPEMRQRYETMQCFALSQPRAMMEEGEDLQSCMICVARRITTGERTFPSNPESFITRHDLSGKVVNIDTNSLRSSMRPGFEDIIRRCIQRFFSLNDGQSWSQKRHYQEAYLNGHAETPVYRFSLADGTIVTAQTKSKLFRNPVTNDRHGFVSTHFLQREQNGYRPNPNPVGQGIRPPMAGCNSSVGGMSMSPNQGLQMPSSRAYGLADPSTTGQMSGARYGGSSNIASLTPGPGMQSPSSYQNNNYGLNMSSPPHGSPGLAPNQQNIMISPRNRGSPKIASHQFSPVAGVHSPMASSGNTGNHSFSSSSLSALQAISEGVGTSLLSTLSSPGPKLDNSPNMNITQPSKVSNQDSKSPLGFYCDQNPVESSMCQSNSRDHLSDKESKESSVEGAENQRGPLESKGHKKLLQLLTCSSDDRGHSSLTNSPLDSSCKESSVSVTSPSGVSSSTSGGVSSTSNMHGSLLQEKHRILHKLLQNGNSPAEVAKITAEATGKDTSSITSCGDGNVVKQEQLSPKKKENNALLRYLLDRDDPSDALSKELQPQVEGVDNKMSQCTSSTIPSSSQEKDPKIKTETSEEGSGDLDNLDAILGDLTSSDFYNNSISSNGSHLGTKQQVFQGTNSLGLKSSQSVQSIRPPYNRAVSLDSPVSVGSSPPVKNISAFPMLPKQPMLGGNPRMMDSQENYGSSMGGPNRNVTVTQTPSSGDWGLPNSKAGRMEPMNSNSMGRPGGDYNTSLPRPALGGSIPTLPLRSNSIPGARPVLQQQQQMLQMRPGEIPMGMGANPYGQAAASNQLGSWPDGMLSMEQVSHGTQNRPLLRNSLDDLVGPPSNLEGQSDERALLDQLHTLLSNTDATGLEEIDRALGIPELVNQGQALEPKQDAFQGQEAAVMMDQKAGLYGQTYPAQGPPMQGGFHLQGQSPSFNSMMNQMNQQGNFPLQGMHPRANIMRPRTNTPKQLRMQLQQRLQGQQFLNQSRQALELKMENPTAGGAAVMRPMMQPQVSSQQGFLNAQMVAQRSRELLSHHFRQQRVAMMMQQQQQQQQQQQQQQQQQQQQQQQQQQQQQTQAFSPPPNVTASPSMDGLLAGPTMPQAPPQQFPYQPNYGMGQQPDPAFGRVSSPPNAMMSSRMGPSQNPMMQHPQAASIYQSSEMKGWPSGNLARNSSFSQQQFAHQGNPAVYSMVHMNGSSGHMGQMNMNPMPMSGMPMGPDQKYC

[22] = blockers of HIV-1 envelope-mediated cell-cell fusion – cherry-pick, dose response (AID 652057); assay type: functional, cell-based
[23] = cells; assay type: functional, cell-based
[24] = cells; assay type: functional, cell-based; remark: listed apart in the source
[25] = off-target signal loss in HeLa-CEM21 co-culture – HeLa F-luc CTL cells, cherry-picked, counter-screen for HIV-1 Env fusion inhibitor project, dose response (AID 652040); assay type: functional, cell-based;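 further: potency for signal decrease marking cytotoxic or nonspecific inhibition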
[26] = viability loss in CEM21 cells – cell-based, CellTiter-Glo luminescence, cherry-picked, cytotoxicity control for viral fusion inhibitor project, dose response (AID 652042); assay type: functional;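 further: potency for signal decrease meaning cytotoxicity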
[27] = biological target: T2, Heat shock factor protein 1 (Mus musculus, UniProt P38532); test: decrease of HSF1-responsive luciferase luminescence – cell-based, NIH3T3, dose retest, confirmation (AID 2382); assay type: functional;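 further: NIH3T3 fibroblasts with HSF1-driven luciferase reporter stressed by proteasome inhibitor MG132; luminescence from HSF1-driven luciferase expression after 8 hours of MG132 stress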
T2 sequence (P38532 whole entry): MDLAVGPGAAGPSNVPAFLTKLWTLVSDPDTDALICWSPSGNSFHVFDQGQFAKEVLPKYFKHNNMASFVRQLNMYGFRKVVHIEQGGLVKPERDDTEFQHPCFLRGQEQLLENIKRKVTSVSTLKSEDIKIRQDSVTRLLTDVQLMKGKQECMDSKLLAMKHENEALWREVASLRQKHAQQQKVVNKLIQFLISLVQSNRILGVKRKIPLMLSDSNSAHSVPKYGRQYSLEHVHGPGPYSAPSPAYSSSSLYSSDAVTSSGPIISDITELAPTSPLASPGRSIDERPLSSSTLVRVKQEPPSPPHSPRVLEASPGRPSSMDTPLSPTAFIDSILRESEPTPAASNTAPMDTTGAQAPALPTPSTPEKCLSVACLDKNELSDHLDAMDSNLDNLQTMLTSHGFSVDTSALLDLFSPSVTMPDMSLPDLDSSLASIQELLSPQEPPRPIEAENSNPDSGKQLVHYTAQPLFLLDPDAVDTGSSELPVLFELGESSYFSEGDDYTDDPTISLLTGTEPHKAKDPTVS

[28] = HIV-1 AD8 envelope cell-cell fusion blockers – cherry-pick, dose response (AID 652062); assay type: functional, cell-based;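 further: luciferase signal from cell-cell fusion driven by HIV-1 clade B AD8 Env; potency is for inhibitors of fusion seen as a drop in luminescence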
[29] = blockers of HIV-1 ZM109 envelope-driven cell-cell fusion – HeLa effector, CEM target cells, luciferase, cherry-pick, dose response (AID 652058); assay type: functional, cell-based;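 further: luciferase signal from HIV-1 Env mediated cell-cell fusion of effector and target cells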

For `CCCS(=O)(=O)N1CCC(C(=O)NCCc2ccccc2)CC1`, the EC50 [1] was > 20 µM (not active) and the EC50 [2] was > 20 µM (not active).
For `CN(C)CCN(C(=O)c1ccc2c(c1)OCCO2)c1nc2ccc(Cl)cc2s1`, the EC50 [3] was < 0.1 µM (active), the EC50 [4] was > 60 µM (not active) and the EC50 [5] was 0.088 µM (active). For the same compound, the EC50 [6] was > 120 µM (not active), the EC50 [7] was > 120 µM (not active) and the EC50 [8] was 15.6 µM (active).
With `Cc1ccc(S(=O)(=O)N2CCN(C)CC2)c(C)c1N(C)S(=O)(=O)c1ccc(Cl)cc1` the EC50 [9] was 3.34 µM (active) and the EC50 [10] was > 29.9 µM (not active).
With `CCOc1ccc2c(c1)C(C)=CC(C)(C)N2S(=O)(=O)c1ccc(C)cc1` the EC50 [9] was > 29.9 µM (not active), the EC50 [11] was > 38 µM (not active) and the EC50 [12] was > 160 µM (inactive). For the same compound, the EC50 [13] was 0.497 µM (active), the EC50 [14] was 0.147 µM (active) and the EC50 [15] was 1.36 µM (active). The EC50 [10] was > 29.9 µM (not active).
For `Cc1ccc(-c2csc(NC(=O)C3=COCCO3)n2)cc1C`, the EC50 [16] was 2.75 µM (active), the EC50 [3] was 0.846 µM (active) and the EC50 [4] was > 60 µM (not active). The EC50 [17] was 0.301 µM (active), the EC50 [18] was 0.353 µM (active) and the EC50 [8] was < 0.1 µM (inconclusive).
For `Cc1ccsc1C(=O)C1CCCN(Cc2cnn(C(C)C)c2)C1` (configuration not stated), the EC50 [3] was < 0.1 µM (active), the EC50 [4] was > 60 µM (inconclusive) and the EC50 [5] was 0.01 µM (active).
With `CCCCC(CC)Cn1c2nc3ccccc3nc2c2c(=N)oc(C)nc21` (configuration not stated) the EC50 [19] was > 79.4 µM (not active), the EC50 [20] was > 79.4 µM (not active) and the EC50 [21] was 84.3 µM (not active).
In the case of `COc1ccc2cc3c(N)nn(C(=O)Cc4c[nH]c5ccccc45)c3nc2c1`, the AC50 [22] is reported as 0.352 µM (active), the EC50 [23] is reported as > 350 µM (not active) and the EC50 [13] is reported as 11.5 µM (active). For the same compound, the EC50 [14] was 23 µM (active), the EC50 [24] was > 350 µM (not active) and the AC50 [25] was 0.512 µM (active). The EC50 [15] was < 0.1 µM (active), the AC50 [26] was 7.5 µM (active) and the EC50 [27] was 0.269 µM (active). For the same compound, the AC50 [28] was 0.563 µM (active) and the AC50 [29] was 0.261 µM (active).
In the case of `O=S(=O)(Cc1cc(Cl)nc(-c2ccccc2)n1)c1ccccc1`, the EC50 [9] is reported as 5.36 µM (active) and the EC50 [10] is reported as > 29.9 µM (not active).
For `COc1cccc(CC2(CO)CCCN(Cc3cn(C)c4ccccc34)C2)c1` (configuration not stated), the EC50 [3] was < 0.1 µM (active), the EC50 [4] was 20 µM (active) and the EC50 [5] was 0.051 µM (active).
With `COc1ccc(N(Cc2cc3cc(OC)ccc3nc2O)S(C)(=O)=O)cc1` the EC50 [1] was > 20 µM (not active) and the EC50 [2] was > 20 µM (not active).

— ChEMBL document CHEMBL1201862, “PubChem BioAssay data set” (2004)
